Measurements as given in patent publication US8232409B2, “Heterocyclic benzimidazoles as TRPM8 modulators” (Janssen Pharmaceutica N.V., priority 2008, dated 2012).
Structures can show the parent of a compound that is named as a salt.

How the values were obtained:
[1] = test system: CCI-induced cold hypersensitivity in Sprague Dawley rats; experiment: Chronic constriction injury (CCI)-induced neuropathic pain, acetone-induced cold hypersensitivity; type: in vivo; settings: po; rat CCI; 10 mg/kg p.o.; 3 h post-dose; read-out: % Inhibition (acetone-evoked paw withdrawals)
Description: Male Sprague Dawley rats (225-450 g; n=5-8/treatment) were used to evaluate the ability of selected compounds of the Formula (I) to reverse CCI-induced cold hypersensitivity. Four loose ligatures of 4-0 chromic gut were surgically placed around the left sciatic nerve under inhalation anesthesia as described by Bennett et al. (Bennett, G. J.; Xie, Y. K. Pain 1988, 33(1), 87-107). Fourteen to 35 days following CCI surgery, subjects were placed in elevated observation chambers containing wire mesh floors and five applications of acetone (0.05 mL/application separated by approximately 5 minutes) were spritzed onto the plantar surface of the paw using a multidose syringe. An abrupt withdrawal or lifting of the paw was considered a positive response. The number of positive responses was recorded for each rat over the five trials. Following baseline withdrawal determinations, compounds of Formula (I) are administered in an appropriate vehicle, such as hydroxypropyl-β-cyclodextrin ([…]), methylcellulose, Methocel, 10% Solutol, or H2O, or the like, by the appropriate route, i.p. or p.o. The number of withdrawals were redetermined 1 to 3 h after compound administration. Results are presented as a percent inhibition of shakes, which was calculated for each subject as [1−(test compound withdrawals/pre-test withdrawals)]×100 and then averaged by treatment.

[2] = test system: icilin-induced "wet-dog" shakes in Sprague Dawley rats; experiment: Reversal of icilin-induced "wet-dog" shakes in rats; type: in vivo; settings: po; rat; 10 mg/kg p.o.; 1 h post-icilin
canine TRPM8 = molecular target: T1, canine TRPM8 (Canis lupus familiaris, UniProt Q1A7N1); experiment: In vitro canine TRPM8 functional assay (icilin-induced intracellular Ca2+, FLIPR/FDSS);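 on all read-outs here: intracellular Ca2+ tracked with a Ca2+-sensitive fluorescent dye, compound applied 5 min before icilin was added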; type: cell-based; settings: HEK293 cells stably expressing canine TRPM8; for inhibition at 0.2 µM: 0.200 μM compound, icilin challenge (~80% maximal response), read-out: % Inh. @ 0.200 μM; for IC50: icilin challenge, eight-point dose-response
T1 construct: expressed in transfected cells
T1 sequence (Q1A7N1 1-1104): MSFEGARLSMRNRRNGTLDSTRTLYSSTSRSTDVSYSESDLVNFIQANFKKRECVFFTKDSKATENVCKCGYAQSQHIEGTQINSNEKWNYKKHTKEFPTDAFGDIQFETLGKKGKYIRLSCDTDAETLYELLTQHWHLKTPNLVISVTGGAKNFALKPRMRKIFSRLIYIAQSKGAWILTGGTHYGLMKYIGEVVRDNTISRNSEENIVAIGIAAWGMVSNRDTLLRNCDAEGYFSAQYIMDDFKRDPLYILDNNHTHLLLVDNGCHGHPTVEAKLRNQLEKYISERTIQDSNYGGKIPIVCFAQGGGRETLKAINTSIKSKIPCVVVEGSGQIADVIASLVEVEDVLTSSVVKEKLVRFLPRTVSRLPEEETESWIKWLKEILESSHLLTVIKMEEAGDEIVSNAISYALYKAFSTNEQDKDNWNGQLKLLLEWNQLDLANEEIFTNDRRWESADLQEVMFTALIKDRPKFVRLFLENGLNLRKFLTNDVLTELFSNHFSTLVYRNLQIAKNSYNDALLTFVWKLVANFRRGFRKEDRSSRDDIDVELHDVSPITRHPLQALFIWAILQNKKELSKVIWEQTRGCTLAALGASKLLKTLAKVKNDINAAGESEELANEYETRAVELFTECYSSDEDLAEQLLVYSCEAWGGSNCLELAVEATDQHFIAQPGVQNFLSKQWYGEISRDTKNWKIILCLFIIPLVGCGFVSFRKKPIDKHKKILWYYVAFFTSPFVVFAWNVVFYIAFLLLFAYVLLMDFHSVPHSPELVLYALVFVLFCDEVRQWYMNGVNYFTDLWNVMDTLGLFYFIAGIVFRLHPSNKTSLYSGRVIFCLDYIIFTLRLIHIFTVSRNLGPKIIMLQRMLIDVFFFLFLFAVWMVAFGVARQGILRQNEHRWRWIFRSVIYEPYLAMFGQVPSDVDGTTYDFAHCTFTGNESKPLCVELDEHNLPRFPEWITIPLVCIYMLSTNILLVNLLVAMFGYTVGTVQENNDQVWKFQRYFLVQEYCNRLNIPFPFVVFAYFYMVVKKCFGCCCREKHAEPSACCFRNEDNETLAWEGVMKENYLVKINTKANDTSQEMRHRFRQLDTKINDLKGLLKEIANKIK

Row | SMILES | inhibition in vivo at 10 mg/kg [1] | inhibition in vivo at 10 mg/kg [2] | inhibition at 0.2 µM (canine TRPM8) | IC50 (canine TRPM8)
1 | FC(F)(F)c1ccccc1-c1ccc2nc(C3=NOC4(CCCCC4)C3)[nH]c2c1 [Cpd 1, 3-[5-(2-Trifluoromethyl-phenyl)-1H-benzimidazol-2-yl]-1-oxa-2-aza-spiro[4.5]dec-2-ene] | 65% |  |  | 
2 | FC(F)(F)Oc1ccccc1-c1ccc2[nH]c(C3=NOC4(CCCCC4)C3)nc2c1 [Cpd 7, 3-[5-(2-Trifluoromethoxy-phenyl)-1H-benzimidazol-2-yl]-1-oxa-2-aza-spiro[4.5]dec-2-ene hydrochloride] | 83% | > 96% |  | 
3 | Fc1cccc(OC(F)(F)F)c1-c1ccc2[nH]c(C3=NOC4(CCCCC4)C3)nc2c1 [Cpd 8, 3-[5-(2-Fluoro-6-trifluoromethoxy-phenyl)-1H-benzimidazol-2-yl]-1-oxa-2-aza-spiro[4.5]dec-2-ene hydrochloride] |  | > 96% |  | 
4 | FC(F)(F)c1ccccc1-c1cc(Cl)c2[nH]c(C3=NOC4(CCCCC4)C3)nc2c1 [Cpd 16, 3-[7-Chloro-5-(2-trifluoromethylphenyl)-1H-benzimidazol-2-yl]-1-oxa-2-aza-spiro[4.5]dec-2-ene hydrochloride] | 82.5% | > 99% |  | 
5 | FC(F)(F)c1ccccc1-c1cc(C(F)(F)F)c2[nH]c(C3=NOC4(CCCCC4)C3)nc2c1 [Cpd 27, 3-[7-Trifluoromethyl-5-(2-trifluoromethyl-phenyl)-1H-benzimidazol-2-yl]-1-oxa-2-aza-spiro[4.5]dec-2-ene hydrochloride] | 83% | > 99% | 100% | 
6 | CC1C(c2nc3cc(-c4ccccc4C(F)(F)F)cc(C(F)(F)F)c3[nH]2)=NOC12CCCCC2 (stereo not shown) [Cpd 28, 4-Methyl-3-[7-trifluormethyl-5-(2-trifluoromethyl-phenyl)-1H-benzimidazol-2-yl]-1-oxa-2-aza-spiro[4.5]dec-2-ene hydrochloride] |  | 30% | 101% | 1.1 nM
7 | FC(F)(F)c1cc(-c2ccccc2Cl)cc2nc(C3=NOC4(CCCCC4)C3)[nH]c12 [Cpd 30, 3-[5-(2-Chloro-phenyl)-7-trifluoromethyl-1H-benzimidazol-2-yl]-1-oxa-2-aza-spiro[4.5]dec-2-ene hydrochloride] | 62.9% | > 98% | 97% | 
8 | FC(F)(F)Oc1ccccc1-c1cc(C(F)(F)F)c2[nH]c(C3=NOC4(CCCCC4)C3)nc2c1 [Cpd 51, 3-[5-(2-Trifluoromethoxyphenyl)-7-trifluoromethyl-1H-benzimidazol-2-yl]-1-oxa-2-aza-spiro[4.5]dec-2-ene hydrochloride] | 57.1% | > 98% | 97% | 
9 | Fc1ccccc1-c1cc(C(F)(F)F)c2[nH]c(C3=NOC4(CCCCC4)C3)nc2c1 [Cpd 53, 3-[5-(2-Fluorophenyl)-7-trifluoromethyl-1H-benzimidazol-2-yl]-1-oxa-2-aza-spiro[4.5]dec-2-ene hydrochloride] | 42.9% | > 98% | 97% | 
10 | Cc1c(-c2ccccc2C(F)(F)F)cc(C)c2[nH]c(C3=NOC4(CCCCC4)C3)nc12 [Cpd 54, 3-[4,7-Dimethyl-5-(2-trifluoromethylphenyl)-1H-benzimidazol-2-yl]-1-oxa-2-aza-spiro[4.5]dec-2-ene hydrochloride] |  |  | 97% | 5.8 nM
11 | Cc1c(-c2ccccc2C(F)(F)F)cc(Cl)c2[nH]c(C3=NOC4(CCCCC4)C3)nc12 [Cpd 55, 3-[7-Chloro-4-methyl-5-(2-trifluoromethylphenyl)-1H-benzimidazol-2-yl]-1-oxa-2-aza-spiro[4.5]dec-2-ene hydrochloride] |  |  | 97% | 4.7 nM
12 | FC(F)(F)c1ccccc1-c1ccc2[nH]c(C3=NOC4(CCCCC4)C3)nc2n1 [Cpd 56, 2-(1-Oxa-2-aza-spiro[4.5]dec-2-en-3-yl)-5-(2-trifluoromethyl-phenyl)-1H-imidazo[4,5-b]pyridine hydrochloride] |  |  | 101% | 4.6 nM
13 | FC(F)(F)c1ccccc1-c1cc2nc(C3=NOC4(CCCCC4)C3)[nH]c2cn1 [Cpd 57, 2-(1-Oxa-2-aza-spiro[4.5]dec-2-en-3-yl)-6-(2-trifluoromethyl-phenyl)-3H-imidazo[4,5-c]pyridine hydrochloride] |  |  | 102% | 2.7 nM
14 | FC(F)(F)c1ccccc1-c1cnc2[nH]c(C3=NOC4(CCCCC4)C3)nc2c1 [Cpd 58, 2-(1-Oxa-2-aza-spiro[4.5]dec-2-en-3-yl)-6-(2-trifluoromethyl-phenyl)-3H-imidazo[4,5-b]pyridine hydrochloride] |  |  | 101% | 2 nM
